Experimental data taken from ChEMBL document CHEMBL1201862, “PubChem BioAssay data set” (2004).
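All cell lines were grown in 96-well plates and treated with compound for 48 hours. Here, GI50 denotes the concentration required for 50% inhibition of growth.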 Calls of active or inactive are those of the source. Cut-off read from the data, not from the text of the source: active = GI50 up to about 1.1 µM and inactive = higher. Non-standard residues stand in square brackets, D forms with d. Residues, ends and D or L forms follow the SMILES beside them. ξ: configuration not given here. *: point of attachment. Cbz = O=C(OCc1ccccc1)*; ξK = NCCCCC(N)C(=O)O

Tests used:
Assay in all cases: NCI anticancer screen, dose series, 48 h
A498 = system: A498
CAKI-1 = system: CAKI-1
DU-145 = system: DU-145
HCT-15 = system: HCT-15
Hs-578T = system: Hs-578T
K562 = system: K562
KM12 = system: KM12
M14 = system: M14
MDA-MB-231 = system: MDA-MB-231
MDA-MB-435 = system: MDA-MB-435
NCI-H226 = system: NCI-H226
NCI-H460 = system: NCI-H460
NCI/ADR-RES = system: NCI/ADR-RES
OVCAR-5 = system: OVCAR-5
PC-3 = system: PC-3
SF-539 = system: SF-539
SN12C = system: SN12C
TK-10 = system: TK-10
UACC-62 = system: UACC-62
SF-295 = system: SF-295

| SMILES | GI50 (A498) | GI50 (CAKI-1) | GI50 (DU-145) | GI50 (HCT-15) | GI50 (Hs-578T) | GI50 (K562) | GI50 (KM12) | GI50 (M14) | GI50 (MDA-MB-231) | GI50 (MDA-MB-435) | GI50 (NCI-H226) | GI50 (NCI-H460) | GI50 (NCI/ADR-RES) | GI50 (OVCAR-5) | GI50 (PC-3) | GI50 (SF-539) | GI50 (SN12C) | GI50 (TK-10) | GI50 (UACC-62) | GI50 (SF-295) |
| --- | --- | --- | --- | --- | --- | --- | --- | --- | --- | --- | --- | --- | --- | --- | --- | --- | --- | --- | --- | --- |
| COC(=O)C(NC(=O)C(CC(=O)OC(C)(C)C)NC(=O)OC(C)(C)C)C(O)c1ccccc1 (centres undefined) | > 100 µM (inactive) | > 100 µM (inactive) | > 100 µM (inactive) | > 100 µM | > 100 µM (inactive) | > 100 µM (inactive) | > 100 µM (inactive) | > 100 µM (inactive) | > 100 µM (inactive) | > 100 µM (inactive) | > 100 µM (inactive) | > 100 µM (inactive) | > 100 µM (inactive) | > 100 µM (inactive) | > 100 µM (inactive) | > 100 µM (inactive) | > 100 µM (inactive) | > 100 µM (inactive) | 3.92 µM (inactive) |  |
| CC(C)(C)OC(=O)n1cc(C2CNC(=O)C23CCC(=O)N3Cc2ccccc2)c2ccccc21 (centres undefined) | 20 µM (inactive) | 36.9 µM (inactive) | 20.4 µM (inactive) |  | 29.9 µM (inactive) | 41.1 µM (inactive) | 25.5 µM (inactive) | 27.4 µM (inactive) | 16.8 µM (inactive) | 20 µM (inactive) | 19.9 µM (inactive) | 20.7 µM (inactive) | 32.4 µM (inactive) | 19.5 µM (inactive) | 25.6 µM (inactive) | 19.4 µM (inactive) | 16.7 µM (inactive) | 17.1 µM (inactive) | 17.5 µM (inactive) | 17.7 µM (inactive) |
| CCCCC(/C=C\COC1CCCCO1)=C/C(=O)OCC (centres undefined) | > 100 µM (inactive) | > 100 µM (inactive) | > 100 µM (inactive) | > 100 µM | 83.9 µM (inactive) | 45.2 µM (inactive) | 46.6 µM (inactive) | 91.6 µM (inactive) | > 100 µM (inactive) | > 100 µM (inactive) | > 100 µM (inactive) | 98.6 µM (inactive) | > 100 µM (inactive) | > 100 µM (inactive) | 44.9 µM (inactive) | 14.3 µM (inactive) | 57.4 µM (inactive) | > 100 µM (inactive) | 55.7 µM (inactive) | 44.4 µM (inactive) |
| C=C(C)C(CC=C(C)C)CC12CC(CC=C(C)C)C(C)(C)C(CC=C(C)C)(C(=O)C(Cc3ccc(O)c(O)c3)=C1O)C2=O (centres undefined) | 74 µM (inactive) | > 100 µM (inactive) | > 100 µM (inactive) | > 100 µM | > 100 µM (inactive) | 99.3 µM (inactive) | > 100 µM (inactive) | > 100 µM (inactive) | > 100 µM (inactive) | > 100 µM (inactive) | > 100 µM (inactive) | > 100 µM (inactive) | > 100 µM (inactive) | > 100 µM (inactive) | > 100 µM (inactive) | > 100 µM (inactive) |  | > 100 µM (inactive) | 85.3 µM (inactive) | > 100 µM (inactive) |
| Cc1cc2c(cc1C)[n+]([O-])c(C(=O)/C=C/c1ccc3c(c1)OCO3)c(C)[n+]2[O-] | 71.6 µM (inactive) | 61.1 µM (inactive) | > 80.5 µM (inactive) | > 100 µM | 26.2 µM (inactive) | > 100 µM (inactive) | > 100 µM (inactive) | 98.9 µM (inactive) | > 48.9 µM (inactive) | > 100 µM (inactive) | 86.5 µM (inactive) | > 91.8 µM (inactive) | 74.6 µM (inactive) | > 100 µM (inactive) | > 100 µM (inactive) | 56.4 µM (inactive) | > 78.7 µM (inactive) | 23.9 µM (inactive) | 29.9 µM (inactive) | 21.1 µM (inactive) |
| O=Cc1cn(CCCCCn2cc(C=O)c3ccccc32)c2ccccc12 | 5.71 µM (inactive) | > 100 µM (inactive) | > 100 µM (inactive) | > 100 µM | 25 µM (inactive) | > 10 µM (inactive) |  | > 100 µM (inactive) | 54.6 µM (inactive) | > 100 µM (inactive) | 0.262 µM (active) | 0.124 µM (active) | > 100 µM (inactive) | 1.68 µM (inactive) | > 100 µM (inactive) | > 100 µM (inactive) | > 100 µM (inactive) | > 100 µM (inactive) | > 100 µM (inactive) | 10.4 µM (inactive) |
| Nc1cc2c3c(cccc3c1)NC2=O | > 100 µM (inactive) | 24.6 µM (inactive) | > 100 µM (inactive) | > 100 µM | > 100 µM (inactive) | > 100 µM (inactive) | > 100 µM (inactive) | 34.6 µM (inactive) | 70.3 µM (inactive) | > 100 µM (inactive) | > 100 µM (inactive) | 8.39 µM (inactive) | > 100 µM (inactive) | > 100 µM (inactive) | > 100 µM (inactive) | 80.7 µM (inactive) | 95.1 µM (inactive) | > 100 µM (inactive) | 63 µM (inactive) | > 100 µM (inactive) |
| O=C(O)c1ccc(C=C2Sc3ccccc3S2)cc1 | 14.5 µM (inactive) | 45.3 µM (inactive) | > 100 µM (inactive) | 37.2 µM | 24 µM (inactive) | 70.5 µM (inactive) | 46.7 µM (inactive) | 44.8 µM (inactive) | > 100 µM (inactive) | 21.1 µM (inactive) | > 100 µM (inactive) | 50 µM (inactive) | 59.3 µM (inactive) | 66.1 µM (inactive) | 50.7 µM (inactive) | > 100 µM (inactive) | 65.9 µM (inactive) | 75.9 µM (inactive) | 26.2 µM (inactive) | 33.5 µM (inactive) |
| CC1(C)C2CCC(CN)(C2)C1N (centres undefined) | > 100 µM (inactive) | > 100 µM (inactive) | > 100 µM (inactive) | > 100 µM | > 100 µM (inactive) | > 100 µM (inactive) | > 100 µM (inactive) | > 100 µM (inactive) | > 100 µM (inactive) | > 100 µM (inactive) | > 100 µM (inactive) | 4.49 µM (inactive) | > 100 µM (inactive) | > 100 µM (inactive) | > 100 µM (inactive) | > 100 µM (inactive) | > 100 µM (inactive) | > 100 µM (inactive) | > 100 µM (inactive) | > 100 µM (inactive) |
| CCCC1C(CC)C(NC)C(C#N)(C#N)C1(C#N)C#N (centres undefined) | 15.6 µM (inactive) | 11.4 µM (inactive) | 14.2 µM (inactive) | 13.2 µM | 25.9 µM (inactive) | 23.7 µM (inactive) | 16.4 µM (inactive) | 35.6 µM (inactive) | 15.2 µM (inactive) | 25.3 µM (inactive) | 2.88 µM (inactive) |  | 17.9 µM (inactive) | 33.7 µM (inactive) | 18.1 µM (inactive) | 16.8 µM (inactive) | 15.1 µM (inactive) | 16.9 µM (inactive) | 17.5 µM (inactive) | 17.2 µM (inactive) |
| CC(C)=C[C@@H]1O[C@H](O)[C@@H]([C@H]2CC[C@@]3(C)[C@@H]4CC[C@H]5C(C)(C)C(=O)CC[C@@]56C[C@@]46CC[C@]23C)[C@@H]1O | 18.3 µM (inactive) | 17.3 µM (inactive) | 16.1 µM (inactive) | 16.9 µM | 21.2 µM (inactive) | 15.6 µM (inactive) | 18.1 µM (inactive) | 21 µM (inactive) | 19.5 µM (inactive) | 17.7 µM (inactive) | 11.7 µM (inactive) | 19.5 µM (inactive) | 16.7 µM (inactive) | 23.1 µM (inactive) | 13 µM (inactive) | 12.4 µM (inactive) | 19.3 µM (inactive) | 16 µM (inactive) | 18.1 µM (inactive) | 16.1 µM (inactive) |
| CCOC(=O)c1nc2c3c(ncn2n1)Oc1c(c(-c2ccccc2)nn1-c1ccccc1)C3c1ccc(Cl)cc1 (centres undefined) | > 100 µM (inactive) | > 100 µM (inactive) | > 100 µM (inactive) | > 100 µM | > 100 µM (inactive) | > 100 µM (inactive) | 15.1 µM (inactive) | > 100 µM (inactive) | > 100 µM (inactive) | > 100 µM (inactive) | > 100 µM (inactive) | > 100 µM (inactive) | > 100 µM (inactive) | > 100 µM (inactive) | > 100 µM (inactive) | > 100 µM (inactive) | > 100 µM (inactive) | > 100 µM (inactive) | > 100 µM (inactive) | > 100 µM (inactive) |
| CC(=O)c1ccc(/N=N/N2CCCC2)cc1 | 15.9 µM (inactive) | > 100 µM (inactive) | > 100 µM (inactive) | > 100 µM | > 100 µM (inactive) | > 100 µM (inactive) | > 100 µM (inactive) | > 100 µM (inactive) | > 100 µM (inactive) | > 100 µM (inactive) | > 100 µM (inactive) | > 100 µM (inactive) | > 100 µM (inactive) | > 100 µM (inactive) | > 100 µM (inactive) | > 100 µM (inactive) | > 100 µM (inactive) | > 100 µM (inactive) | > 100 µM (inactive) | > 100 µM (inactive) |
| NCCCCC(NC(=O)OCc1ccccc1)C(=O)NCC(N)=O (centres undefined) (Cbz-[ξK]-Gly-NH2) | > 100 µM (inactive) | > 100 µM (inactive) | > 100 µM (inactive) | > 100 µM | > 100 µM (inactive) | > 100 µM (inactive) | > 100 µM (inactive) | > 100 µM (inactive) | > 100 µM (inactive) | > 100 µM (inactive) | > 100 µM (inactive) | > 100 µM (inactive) | > 100 µM (inactive) | > 100 µM (inactive) | > 100 µM (inactive) | > 100 µM (inactive) | > 100 µM (inactive) |  | > 100 µM (inactive) | > 100 µM (inactive) |
